Source: patent US11066414B2, “Cot modulators and methods of use thereof” (Gilead Sciences, Inc., priority 2015, dated 2021)
Read-outs that look alike come from different tables or passages of the source.

Tests used:
Human Cot = Human Cot (Homo sapiens (Human), UniProt P41279); test: High Throughput Cot Biochemical Assay; conditions: Cot HTRF (TR-FRET) biochemical assay
TNFα = test: Cot Monocyte TNFα Cell Based Assay
[1] = Homo sapiens, Monocyte, read-out: EC50 TNF, LPS-stimulated human monocytes, TNFα
[2] = read-out: EC50 TNF, LPS-stimulated human monocytes, TNFα

Chain of Human Cot (P41279 30-397): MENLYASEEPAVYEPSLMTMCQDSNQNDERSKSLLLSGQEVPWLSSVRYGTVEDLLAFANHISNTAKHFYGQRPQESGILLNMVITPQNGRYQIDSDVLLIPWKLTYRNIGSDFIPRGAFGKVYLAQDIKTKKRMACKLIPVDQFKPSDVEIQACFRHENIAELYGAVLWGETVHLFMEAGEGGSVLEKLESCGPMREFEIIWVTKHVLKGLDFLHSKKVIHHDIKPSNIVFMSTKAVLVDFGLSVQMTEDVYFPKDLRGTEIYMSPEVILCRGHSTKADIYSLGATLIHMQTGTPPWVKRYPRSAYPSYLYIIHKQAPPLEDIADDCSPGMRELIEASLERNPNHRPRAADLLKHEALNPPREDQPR

IC50 (Human Cot; IC50 HTRF) | EC50 (TNFα; [1]) | IC50 (Human Cot; read-out: IC50 HTRF) | EC50 (TNFα; [2]) | SMILES
2 nM | 26 nM | – | – | Cc1nc(F)ccc1[C@H](Nc1cc(C#N)c2ncc(C#N)c(NCC(C)(C)C)c2c1)c1nnn(C2CC2)c1F [Example 681, (S)-6-(((1-cyclopropyl-5-fluoro-1H-1,2,3-triazol-4-yl)(6-fluoro-2-methylpyridin-3-yl)methyl)amino)-4-(neopentylamino)quinoline-3,8-dicarbonitrile]
– | – | 7 nM | 66 nM | CC(C)(C)CNc1c(C#N)cnc2c(Cl)cc(N[C@H](c3cn(C4(C5CC5)CC4)nn3)c3cccc4cnccc34)cc12 [Example 682, (S)-6-(((4-(1-(1-bi(cyclopropan)]-1-yl)-1H-1,2,3-triazol-4-yl)(isoquinolin-5-yl)methyl)amino)-8-chloro-4-(neopentylamino)quinoline-3-carbonitrile]
30 nM | 437 nM | – | – | Cc1ccc([C@H](Nc2cc(Cl)c3ncc(C#N)c(NCC(C)(C)C)c3c2)c2cn(C3(C(F)(F)F)CC3)nn2)c(F)n1 [Example 688, (S)-8-chloro-6-(((2-fluoro-6-methylpyridin-3-yl)(1-(1-(trifluoromethyl)-cyclopropyl)-1H-1,2,3-triazol-4-yl)methyl)amino)-4-(neopentylamino)quinoline-3-carbonitrile]
– | – | 9 nM | 81 nM | Cc1ccc([C@H](Nc2cc(C#N)c3ncc(C#N)c(NCC(C)(C)C)c3c2)c2cn(C3(C(F)(F)F)CC3)nn2)c(C)n1 [Example 689, (S)-6-(((2,6-dimethylpyridin-3-yl)(1-(1′-(trifluoromethyl)cyclopropyl)-1H-1,2,3-triazol-4-yl)methyl)amino)-4-(neopentylamino)quinoline-3,8-dicarbonitrile]
21 nM | 250 nM | – | – | Cc1ccc([C@H](Nc2cc(C#N)c3ncc(C#N)c(NCC(C)(C)C)c3c2)c2cn(C3(C(F)(F)F)CC3)nn2)c(F)n1 [Example 690, (S)-6-(((2-fluoro-6-methylpyridin-3-yl)(1-(1-(trifluoromethyl)cyclopropyl)-1H-1,2,3-triazol-4-yl)methyl)amino)-4-(neopentylamino)quinoline-3,8-dicarbonitrile]
6 nM | 66 nM | – | – | CC(C)(C)CNc1c(C#N)cnc2c(Cl)cc(N[C@H](c3cn(C4(C5CC5)CC4)nn3)c3cccc4ncccc34)cc12 [Example 691, (S)-6-(((1-([1,1′-bi(cyclopropan)]-1-yl)-1H-1,2,3-triazol-4-yl)(quinolin-5-yl)methyl)amino)-8-chloro-4-(neopentylamino)quinoline-3-carbonitrile]
– | – | 3 nM | 38 nM | CC(C)(C)CNc1c(C#N)cnc2c(Cl)cc(N[C@H](c3cn([C@@H]4C[C@@H]4F)nn3)c3cccc4ncccc34)cc12 [Example 692, 8-chloro-6-(((SH l-((lR,2S)-2-fluorocyclopropyl)-1H-1,2,3-triazol-4-yl)(quinolin-5-yl)methyl)amino)-4-(neopentylamino)quinoline-3-carbonitrile]
7 nM | 84 nM | – | – | CC(C)(C)CNc1c(C#N)cnc2c(Cl)cc(N[C@H](c3cn(C(C)(C)CF)nn3)c3cccc4ncccc34)cc12 [Example 694, (S)-8-chloro-6-(((1-(1-fluoro-2-methylpropan-2-yl)-1H-1,2,3-triazol-4-yl)(quinolin-5-yl)methyl)amino)-4-(neopentylamino)quinoline-3-carbonitrile]
27 nM | 684 nM | – | – | CC(C)(C)CNc1c(C#N)cnc2c(Cl)cc(N[C@@H](c3ccc4cccnc4c3)c3cn(C4(C(F)(F)F)CC4)nn3)cc12 [Example 698, (S)-8-chloro-4-(neopentylamino)-6-((quinolin-7-yl(1-(1-(trifluoromethyl)cyclopropyl)-1H-1,2,3-triazol-4-yl)methyl)amino)quinoline-3-carbonitrile]
– | – | 2 nM | 179 nM | CC(C)(C)CNc1c(C#N)cnc2c(C#N)cc(N[C@H](c3cn(C4(C(F)(F)F)CC4)nn3)c3cccc4c(=O)[nH]ccc34)cc12 [Example 700, (S)-4-(neopentylamino)-6-(((1-oxo-1,2-dihydroisoquinolin-5-yl)(4-(1-1-(trifluoromethyl)-cyclopropyl)-1H-1,2,3-triazol-4-yl)methyl)amino)quinoline-3,8-dicarbonitrile]
4 nM | 188 nM | – | – | Cc1ncsc1[C@H](Nc1cc(Cl)c2ncc(C#N)c(NCC(C)(C)C)c2c1)c1cn(C2(C3CC3)CC2)nn1 [Example 702, (R)-6-(((1-([1,1′-bi(cyclopropan)]-1-yl)-1H-1,2,3-triazol-4-yl)(4-methylthiazol-5-yl)methyl)amino)-8-chloro-4-(neopentylamino)quinoline-3-carbonitrile]
2 nM | 22 nM | – | – | CC(C)(C)CNc1c(C#N)cnc2c(C#N)cc(N[C@H](c3cn(C4(C5CC5)CC4)nn3)c3cccc4cnccc34)cc12 [Example 703, (S)-6-(((1-([1,1′-bi(cyclopropan)]-1-yl)-1H-1,2,3-triazol-4-yl)(isoquinolin-5-yl)methyl)amino)-4-(neopentylamino)quinoline-3,8-dicarbonitrile]
16 nM | 230 nM | – | – | Cc1nc(F)ccc1[C@H](Nc1cc(Cl)c2ncc(C#N)c(NCC(C)(C)C)c2c1)c1nnn(C2(C(F)F)CC2)c1I [Example 707, (S)-8-chloro-6-(((1-(1-(difluoromethyl)cyclopropyl)-5-iodo-1H-1,2,3-triazol-4-yl)(6-fluoro-2-methylpyridin-3-yl)methyl)amino)-4-(neopentylamino)quinoline-3-carbonitrile]
6 nM | 176 nM | – | – | CC(C)(C)CNc1c(C#N)cnc2c(C#N)cc(N[C@@H](c3ccc4cccnc4c3)c3cn(C4(C(F)F)CC4)nn3)cc12 [Example 708, (S)-6-(((1-(1-(difluoromethyl)cyclopropyl)-1H-1,2,3-triazol-4-yl)(quinolin-7-yl)methyl)amino)-4-(neopentylamino)quinoline-3,8-dicarbonitrile]
17 nM | 187 nM | – | – | CC(C)(C)CNc1c(C#N)cnc2c(Cl)cc(N[C@H](c3cn(C4(C(F)(F)F)CC4)nn3)c3ccc(Cl)c4ncccc34)cc12 [Example 709, (S)-8-chloro-6-(((8-chloroquinolin-5-yl)(1-(1-(trifluoromethyl)cyclopropyl)-1H-1,2,3-triazol-4-yl)methyl)amino)-4-(neopentylamino)quinoline-3-carbonitrile]
5 nM | 148 nM | – | – | CC(C)(C)CNc1c(C#N)cnc2c(C#N)cc(N[C@H](c3cn(C4(C(F)(F)F)CC4)nn3)c3ccc(C#N)c4ncccc34)cc12 [Example 710, (S)-6-(((8-cyanoquinolin-5-yl)(1-(1-(trifluoromethyl)cyclopropyl)-1H-1,2,3-triazol-4-yl)methyl)amino)-4-(neopentylamino)quinoline-3,8-dicarbonitrile]
2 nM | 32 nM | – | – | [2H]C([2H])([2H])n1ccc2c([C@H](Nc3cc(Cl)c4ncc(C#N)c(NCC(C)(C)C)c4c3)c3cn(C45CC(C4)C5)nn3)cccc2c1=O [Example 711, (S)-6-(((1-(bicyclo[1.1.1]pentan-1-yl)-1H-1,2,3-triazol-4-yl)(2-(methyl-d3)-1-oxo-1,2-dihydroisoquinolin-5-yl)methyl)amino)-8-chloro-4-(neopentylamino)quinoline-3-carbonitrile]
2 nM | 21 nM | – | – | Cn1ccc2c([C@H](Nc3cc(Cl)c4ncc(C#N)c(NCC(C)(C)C)c4c3)c3cn(C45CC(C4)C5)nn3)cccc2c1=O [Example 713, (S)-6-(((1-(bicyclo[1.1.1]pentan-1-yl)-1H-1,2,3-triazol-4-yl)(2-methyl-1-oxo-1,2-dihydroisoquinolin-5-yl)methyl)amino)-8-chloro-4-(neopentylamino)quinoline-3-carbonitrile]
6 nM | 57 nM | – | – | Cn1ccc2c([C@H](Nc3cc(Cl)c4ncc(C#N)c(NCC(C)(C)C)c4c3)c3cn(C4CCN(C(C)(C)C)CC4)nn3)cccc2c1=O [Example 714, (S)-6-(((1-(1-(tert-butyl)piperidin-4-yl)-1H-1,2,3-triazol-4-yl)(2-methyl-1-oxo-1,2-dihydroisoquinolin-5-yl)methyl)amino)-8-chloro-4-(neopentylamino)quinoline-3-carbonitrile]
3 nM | 91 nM | – | – | Cc1nc(F)ccc1[C@H](Nc1cc(Cl)c2ncc(C#N)c(NCC(C)(C)C(F)(F)F)c2c1)c1cn(C(C)(C)C)nn1 [Example 715, (S)-6-(((1-(tert-butyl)-1H-1,2,3-triazol-4-yl)(6-fluoro-2-methylpyridin-3-yl)methyl)amino)-8-chloro-4-((3,3,3-trifluoro-2,2-dimethylpropyl)amino)quinoline-3-carbonitrile]
2 nM | 54 nM | – | – | Cc1nc(F)ccc1[C@H](Nc1cc(Cl)c2ncc(C#N)c(NCC(C)(C)C)c2c1)c1cn(C2CC2)nn1 [Example 716, (S)-8-chloro-6-(((1-cyclopropyl-1H-1,2,3-triazol-4-yl)(6-fluoro-2-methylpyridin-3-yl)methyl)amino)-4-(neopentylamino)quinoline-3-carbonitrile]
8 nM | 100 nM | – | – | Cc1ccc([C@H](Nc2cc(Cl)c3ncc(C#N)c(NCC(C)(C)C)c3c2)c2cn(C3(C(F)F)CC3)nn2)c(C)n1 [Example 717, (S)-8-chloro-6-(((1-(1-(difluoromethyl)cyclopropyl)-1H-1,2,3-triazol-4-yl)(2,6-dimethylpyridin-3-yl)methyl)amino)-4-(neopentylamino)quinoline-3-carbonitrile]
9 nM | 112 nM | – | – | Cc1nc(Cl)ccc1[C@H](Nc1cc(Cl)c2ncc(C#N)c(NCC(C)(C)C)c2c1)c1cn(C2(C(F)F)CC2)nn1 [Example 718, (S)-8-chloro-6-(((6-chloro-2-methylpyridin-3-yl)(1-(1-(difluoromethyl)cyclopropyl)-1H-1,2,3-triazol-4-yl)methyl)amino)-4-(neopentylamino)quinoline-3-carbonitrile]
